Like-named read-outs stand apart in the source and are kept apart here.
Test system: androgen receptor (AR) in LNCaP and/or VCaP cells
Experiment: Androgen Receptor ELISA assay (AR degradation)
Format: cell-based
Method in brief: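 VCaP cells grown ≥3 days, then treated 5 h with compound in media containing 1 nM R1881 (10× stock). Cells lysed and AR quantified by sandwich ELISA (mouse AR detection Ab, HRP anti-mouse, TMB). DC50 and Dmax derived from AR degradation.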

[1] = LNCaP and/or VCaP cells, 5 hours incubation, media with R1881, read-out: DC50 Code* (degradation of AR ELISA)
[2] = degradation of AR ELISA in LNCaP and/or VCaP cells, Table 2C, read-out: DC50 Code*

Row | DC50 [1] [nM] | DC50 [2] [nM] | SMILES
1 | > 100 |  | CC1(C)[C@H](NC(=O)c2ccn([C@H]3CC[C@H](CCCOc4ccc5c(c4)C(=O)N(C4CCC(=O)NC4=O)C5=O)CC3)n2)C(C)(C)[C@H]1Oc1ccc(C#N)c(Cl)c1 (stereo partly drawn) [Compound 72, N-((1r,3R)-3-(3-chloro-4-cyanophenoxy)-2,2,4,4-tetramethylcyclobutyl)-1-((1r,4R)-4-(3-((2-(2,6-dioxopiperidin-3-yl)-1,3-dioxoisoindolin-5-yl)oxy)propyl)cyclohexyl)-1H-pyrazole-3-carboxamide]
2 | > 100 |  | CC(C)N(CC1CCN(c2cnc(C(=O)N[C@H]3CC[C@H](Oc4ccc(C#N)c(Cl)c4)CC3)cn2)CC1)[C@H]1C[C@H](Oc2ccc3c(c2)C(=O)N(C2CCC(=O)NC2=O)C32CC2)C1 (some centres unmarked) [Compound 73, N-((1r,4r)-4-(3-chloro-4-cyanophenoxy)cyclohexyl)-5-(4-((((1r,3r)-3-((2′-(2,6-dioxopiperidin-3-yl)-3′-oxospiro[cyclopropane-1,1′-isoindolin]-5′-yl)oxy)cyclobutyl) (isopropyl)amino)methyl)piperidin-1-yl)pyrazine-2-carboxamide]
3 | > 100 |  | CN1C(=O)CCC(N2C(=O)c3cc(F)c(N4CCN(CC5CCN(c6ccc(C(=O)N[C@H]7CC[C@H](Oc8ccc(C#N)c(Cl)c8)CC7)nn6)CC5)CC4)cc3C2=O)C1=O (some centres unmarked) [Compound 74, N-((1r,4r)-4-(3-chloro-4-cyanophenoxy)cyclohexyl)-6-(4-((4-(6-fluoro-2-(1-methyl-2,6-dioxopiperidin-3-yl)-1,3-dioxoisoindolin-5-yl)piperazin-1-yl)methyl)piperidin-1-yl)pyridazine-3-carboxamide]
4 | > 100 |  | CC(C)N(CC1CCN(c2cnc(C(=O)N[C@H]3CC[C@H](Oc4ccc(C#N)c(Cl)c4)CC3)cn2)CC1)[C@H]1C[C@H](Oc2ccc3c(c2)C(=O)N([C@@H]2C(=O)NC(=O)C[C@H]2C)C3=O)C1 [Compound 75, N-((1r,4r)-4-(3-chloro-4-cyanophenoxy)cyclohexyl)-5-(4-((isopropyl((1S,3r)-3-((2-((3S,4R)-4-methyl-2,6-dioxopiperidin-3-yl)-1,3-dioxoisoindolin-5-yl)oxy)cyclobutyl)amino)methyl)piperidin-1-yl)pyrazine-2-carboxamide]
5 | > 100 |  | CC(C)N(CC1CCN(c2cnc(C(=O)N[C@H]3CC[C@H](Oc4ccc(C#N)c(Cl)c4)CC3)cn2)CC1)[C@H]1C[C@H](Oc2ccc3c(c2)C(=O)N([C@@H]2C(=O)NC(=O)C[C@@H]2C)C3=O)C1 [Compound 76, N-((1r,4r)-4-(3-chloro-4-cyanophenoxy)cyclohexyl)-5-(4-((isopropyl((1S,3r)-3-((2-((3S,4S)-4-methyl-2,6-dioxopiperidin-3-yl)-1,3-dioxoisoindolin-5-yl)oxy)cyclobutyl)amino)methyl)piperidin-1-yl)pyrazine-2-carboxamide]
6 | < 1 |  | COc1cc(O[C@H]2C[C@H](N(CC3CCN(c4cnc(C(=O)N[C@H]5CC[C@H](Oc6ccc(C#N)c(C)c6)CC5)cn4)CC3)C(C)C)C2)cc2c1C(=O)N(C1CCC(=O)NC1=O)C2=O (some centres unmarked) [Compound 78, N-((1r,4r)-4-(4-cyano-3-methylphenoxy)cyclohexyl)-5-(4-((((1r,3r)-3-((2-(2,6-dioxopiperidin-3-yl)-7-methoxy-1,3-dioxoisoindolin-5-yl)oxy)cyclobutyl) (isopropyl)amino)methyl)piperidin-1-yl)pyrazine-2-carboxamide]
7 |  | < 1 | COc1cc2c(cc1O[C@H]1C[C@H](N(CC3CCN(c4cnc(C(=O)N[C@H]5C(C)(C)[C@H](Oc6cc(C)c(C#N)c(C)c6)C5(C)C)cn4)CC3)C(C)C)C1)C(=O)N(C1CCC(=O)NC1=O)C2=O (some centres unmarked) [Compound 199, N-((1r,3r)-3-(4-cyano-3,5-dimethylphenoxy)-2,2,4,4-tetramethylcyclobutyl)-5-(4-((((1r,3r)-3-((2-(2,6-dioxopiperidin-3-yl)-6-methoxy-1,3-dioxoisoindolin-5-yl)oxy)cyclobutyl)(isopropyl)amino)methyl)piperidin-1-yl)pyrazine-2-carboxamide]
8 |  | < 1 | CCN(CC1CCN(c2cnc(C(=O)N[C@H]3C(C)(C)[C@H](Oc4cc(C)c(C#N)c(C)c4)C3(C)C)cn2)CC1)[C@H]1C[C@H](Oc2cc(OC)c3c(c2)C(=O)N(C2CCC(=O)NC2=O)C3=O)C1 (some centres unmarked) [Compound 207, N-((1r,3r)-3-(4-cyano-3,5-dimethylphenoxy)-2,2,4,4-tetramethylcyclobutyl)-5-(4-((((1r,3r)-3-((2-(2,6-dioxopiperidin-3-yl)-7-methoxy-1,3-dioxoisoindolin-5-yl)oxy)cyclobutyl)(ethyl)amino)methyl)piperidin-1-yl)pyrazine-2-carboxamide]
9 |  | < 1 | COc1c(O[C@H]2C[C@H](N(CC3CCN(c4cnc(C(=O)N[C@H]5C(C)(C)[C@H](Oc6ccc(C#N)c(Cl)c6)C5(C)C)cn4)CC3)C(C)C)C2)ccc2c1CN(C1CCC(=O)NC1=O)C2=O (some centres unmarked) [Compound 227, N-((1r,3r)-3-(3-chloro-4-cyanophenoxy)-2,2,4,4-tetramethylcyclobutyl)-5-(4-((((1r,3r)-3-((2-(2,6-dioxopiperidin-3-yl)-4-methoxy-1-oxoisoindolin-5-yl)oxy)cyclobutyl)(isopropyl)amino)methyl)piperidin-1-yl)pyrazine-2-carboxamide]
10 |  | < 1 | COc1cc(O[C@H]2C[C@H](N(CC3CCN(c4ncc(C(=O)N[C@H]5C(C)(C)[C@H](Oc6cc(C)c(C#N)c(C)c6)C5(C)C)cn4)CC3)C(C)C)C2)cc2c1C(=O)N(C1CCC(=O)NC1=O)C2=O (some centres unmarked) [compound 79, N-((1r,3r)-3-(4-cyano-3,5-dimethylphenoxy)-2,2,4,4-tetramethylcyclobutyl)-2-(4-((((1r,3r)-3-((2-(2,6-dioxopiperidin-3-yl)-7-methoxy-1,3-dioxoisoindolin-5-yl)oxy)cyclobutyl) (isopropyl)amino)methyl)piperidin-1-yl)pyrimidine-5-carboxamide]
11 |  | < 1 | CC(C)N(CC1CCN(c2ncc(C(=O)N[C@H]3C(C)(C)[C@H](Oc4ccc(C#N)c(Cl)c4)C3(C)C)cn2)CC1)[C@H]1C[C@H](Oc2ccc3c(c2)CN(C2CCC(=O)NC2=O)C3=O)C1 (some centres unmarked) [compound 80, N-((1r,3r)-3-(3-chloro-4-cyanophenoxy)-2,2,4,4-tetramethylcyclobutyl)-2-(4-((((1r,3r)-3-((2-(2,6-dioxopiperidin-3-yl)-1-oxoisoindolin-5-yl)oxy)cyclobutyl) (isopropyl)amino)methyl)piperidin-1-yl)pyrimidine-5-carboxamide]
12 |  | < 1 | COc1cc(O[C@H]2C[C@H](N(CC3CCN(c4ncc(C(=O)N[C@H]5C(C)(C)[C@H](Oc6cc(C)c(C#N)c(C)c6)C5(C)C)cn4)CC3)C(C)=O)C2)cc2c1C(=O)N(C1CCC(=O)NC1=O)C2=O (some centres unmarked) [compound 81, N-((1r,3r)-3-(4-cyano-3,5-dimethylphenoxy)-2,2,4,4-tetramethylcyclobutyl)-2-(4-((N-((1r,3r)-3-((2-(2,6-dioxopiperidin-3-yl)-7-methoxy-1,3-dioxoisoindolin-5-yl)oxy)cyclobutyl)acetamido)methyl)piperidin-1-yl)pyrimidine-5-carboxamide]
13 |  | < 1 | Cc1cc(O[C@H]2C(C)(C)[C@H](NC(=O)c3cnc(N4CC(CN[C@H]5C[C@H](Oc6ccc7c(c6)C(=O)N(C6CCC(=O)NC6=O)C7=O)C5)C4)nc3)C2(C)C)cc(C)c1C#N (some centres unmarked) [compound 82, N-((1r,3r)-3-(4-cyano-3,5-dimethylphenoxy)-2,2,4,4-tetramethylcyclobutyl)-2-(3-((((1r,3r)-3-((2-(2,6-dioxopiperidin-3-yl)-1,3-dioxoisoindolin-5-yl)oxy)cyclobutyl)amino)methyl)azetidin-1-yl)pyrimidine-5-carboxamide]
14 |  | < 1 | CCN(CC1CCN(c2ncc(C(=O)N[C@H]3C(C)(C)[C@H](Oc4cc(C)c(C#N)c(C)c4)C3(C)C)cn2)CC1)[C@H]1C[C@H](Oc2ccc3c(c2)C(=O)N(C2CCC(=O)NC2=O)C3=O)C1 (some centres unmarked) [compound 83, N-((1r,3r)-3-(4-cyano-3,5-dimethylphenoxy)-2,2,4,4-tetramethylcyclobutyl)-2-(4-((((1r,3r)-3-((2-(2,6-dioxopiperidin-3-yl)-1,3-dioxoisoindolin-5-yl)oxy)cyclobutyl)(ethyl)amino)methyl)piperidin-1-yl)pyrimidine-5-carboxamide]
15 |  | < 1 | CC(C)N(CC1CCN(c2ncc(C(=O)N[C@H]3C(C)(C)[C@H](Oc4ccc(C#N)c(Cl)c4)C3(C)C)cn2)CC1)[C@H]1CC[C@H](Oc2ccc3c(c2)C(=O)N(C2CCC(=O)NC2=O)C3=O)CC1 (some centres unmarked) [compound 84, N-((1r,3r)-3-(3-chloro-4-cyanophenoxy)-2,2,4,4-tetramethylcyclobutyl)-2-(4-((((1r,4r)-4-((2-(2,6-dioxopiperidin-3-yl)-1,3-dioxoisoindolin-5-yl)oxy)cyclohexyl) (isopropyl)amino)methyl)piperidin-1-yl)pyrimidine-5-carboxamide]
16 |  | < 1 | Cc1cc(O[C@H]2C(C)(C)[C@H](NC(=O)c3cnc(N4CCC(CCN5CC(Oc6ccc7c(c6)C(=O)N(C6CCC(=O)NC6=O)C7=O)C5)CC4)nc3)C2(C)C)cc(C)c1C#N (some centres unmarked) [compound 85, N-((1r,3r)-3-(4-cyano-3,5-dimethylphenoxy)-2,2,4,4-tetramethylcyclobutyl)-2-(4-(2-(3-((2-(2,6-dioxopiperidin-3-yl)-1,3-dioxoisoindolin-5-yl)oxy)azetidin-1-yl)ethyl)piperidin-1-yl)pyrimidine-5-carboxamide]
17 |  | < 1 | Cc1cc(O[C@H]2C(C)(C)[C@H](NC(=O)c3cnc(N4CCC(CN(C)[C@H]5C[C@H](Oc6ccc7c(c6)C(=O)N(C6CCC(=O)NC6=O)C7=O)C5)CC4)nc3)C2(C)C)cc(C)c1C#N (some centres unmarked) [compound 86, N-((1r,3r)-3-(4-cyano-3,5-dimethylphenoxy)-2,2,4,4-tetramethylcyclobutyl)-2-(4-((((1r,3r)-3-((2-(2,6-dioxopiperidin-3-yl)-1,3-dioxoisoindolin-5-yl)oxy)cyclobutyl) (methyl)amino)methyl)piperidin-1-yl)pyrimidine-5-carboxamide]

From patent US20260053932A1, “COMPOUNDS AND METHODS FOR THE TARGETED DEGRADATION OF ANDROGEN RECEPTOR AND ASSOCIATED METHODS OF USE” (Arvinas Operations, Inc., priority 2020, published 2026)
